Laboratory results as given in patent EP4768484A1, “HETEROCYCLIC FUSED RING COMPOUND, AND COMPOSITION AND USE THEREOF” (Shenzhen TargetRx, Inc., priority 2023, dated 2025).
pIC50: −log10 of the molar value.

Key:
Assay type in all cases: cell-based
K562 cells = assay: Cell growth inhibitory activity assay (CellTiter-Glo), K562 cells; details: Homo sapiens, 72 h, CTG cell viability
Procedure, shortened: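 K562 cells in logarithmic growth were counted, diluted and plated in 96-well plates, with medium-only blanks and a separate T0 plate read by CTG the following day. After overnight incubation, graded compound concentrations were added for 72 h, with 0.5% DMSO wells as growth controls. Luminescence was read on a Biotek cytation3.0, and IC50 came from nonlinear fitting in GraphPad Prism 7.0.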

[1] = target: T1, Ba/F3 BCR-ABL1 Y253H/E255K (Homo sapiens, UniProt P00519+P11274, E255K/Y253H); assay: Cell growth inhibitory activity assay (CellTiter-Glo), Ba/F3 BCR-ABL1 Y253H/E255K cells; details: 72 h, CTG cell viability
T1 construct: BCR (N-terminal fusion partner of the oncoprotein); expressed in transfected cells; host or cells: Ba/F3 (lentiviral transduction, monoclonal line)
Method: (§1) In this assay, the Celltiter-Glo (CTG) kit provided by Promega was used, and it is a homogeneous cell viability assay method. The cell viability of cultured cells was measured by quantifying ATP. K562 cells were purchased from Nanjing Kebai, product number CBP60529; Ba/F3 parental cells were purchased from RIKEN BRC, product number RCB0805; other cells containing BCR-ABL1 WT, BCR-ABL1 T315I, BCR-ABL1 T315M, BCR-ABL1 Y253H/E255K, BCR-ABL1 E255V/T3151, BCR-ABL1 A424T, BCR-ABL1 A337V, BCR-ABL1 P465S, BCR-ABL1 V468F, and BCR-ABL1 I502L were all monoclonal engineered cell lines obtained by transducting Ba/F3 parental cells with the lentivirus plasmids containing WT or corresponding mutated BCR-ABL1.
(§2) The steps of cell viability assay are as follows: • a) Cells in logarithmic growth phase were collected. Cell suspension was prepared and the cells were counted. Concentration of the cells was calculated. • b) The cell suspension was diluted to the required concentration and then added to the middle wells of a 96-well plate, and PBS was added to the edge wells. The wells with no cells and only culture medium were used as blank controls. • c) In addition to the cell plate used for compound analysis, another 96-well plate was prepared as a T0 plate, and 3-6 blank wells and 3-6 cell wells were added. The next day, CTG was used to test the cell viability as the T0 viability value of the cells. • d) The cell plate was incubated at 37 °C in a 5% CO2 incubator overnight. • e) The next day, each concentration of a compound subjected to a gradient dilution was added, and the cell plate was incubated at 37 °C in a 5% CO2 incubator for 72 h. The wells with no compound and only 0.5% DMSO were used as positive controls for cell growth. • f) CTG reagent (CellTiter-Glo kit) was added according to the manufacturer's instructions to test the cell viability value. • g) The plate was read using Biotek cytation3.0 microplate reader and the data were exported. • h) IC50 was calculated using GraphPad Prism 7.0 software.
(§3) The IC50 (half-maximal inhibitory concentration) of the compound was obtained using the following nonlinear fitting formula: Y = Bottom + (Top−Bottom)/(1+10^(∧)((LogIC50−X)*HillSlope)) [formula] • X: Log value of the compound concentration • Y: Inhibition rate (% inhibition) • Top: Maximum response • Bottom: Baseline response • HillSlope: Slope of the curve
(§4) The formula for calculating cell inhibition rate (inhibition rate %) was: [formula]

Ba/F3 parental cells = assay: Cell growth inhibitory activity assay (CellTiter-Glo), Ba/F3 parental cells; details: Mus musculus, BaF3, 72 h, CTG cell viability, read-out: IC50 Ba/F3 BCR-ABL1 Parental
Procedure, shortened: (§5)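 Compound dilutions applied for 72 h (37 °C, 5% CO2) to overnight-plated Ba/F3 cells, parental or engineered to express WT/mutant BCR-ABL1. ATP-based CellTiter-Glo luminescence read, referenced to day-0 viability and 0.5% DMSO wells; IC50 fitted by four-parameter logistic curve.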

Ba/F3 BCR-ABL1 T315M = target: T2, Ba/F3 BCR-ABL1 T315M (Homo sapiens, UniProt P00519+P11274, T315M); assay: Cell growth inhibitory activity assay (CellTiter-Glo), Ba/F3 BCR-ABL1 T315M cells; details: 72 h, CTG cell viability
T2 construct: BCR (N-terminal fusion partner of the oncoprotein); expressed in transfected cells; host or cells: Ba/F3 (lentiviral transduction, monoclonal line)
Procedure, shortened: as §5

Ba/F3 BCR-ABL1 A424T = target: T3, Ba/F3 BCR-ABL1 A424T (Homo sapiens, UniProt P00519+P11274, A424T); assay: Cell growth inhibitory activity assay (CellTiter-Glo), Ba/F3 BCR-ABL1 A424T cells; details: 72 h, CTG cell viability
T3 construct: BCR (N-terminal fusion partner of the oncoprotein); expressed in transfected cells; host or cells: Ba/F3 (lentiviral transduction, monoclonal line)
Method: as §1, §2, §3, §4

Ba/F3 BCR-ABL1 A337V = target: T4, Ba/F3 BCR-ABL1 A337V (Homo sapiens, UniProt P00519+P11274, A337V); assay: Cell growth inhibitory activity assay (CellTiter-Glo), Ba/F3 BCR-ABL1 A337V cells; details: 72 h, CTG cell viability
T4 construct: BCR (N-terminal fusion partner of the oncoprotein); expressed in transfected cells; host or cells: Ba/F3 (lentiviral transduction, monoclonal line)
Method: as §1, §2, §3, §4

Ba/F3 BCR-ABL1 P465S = target: T5, Ba/F3 BCR-ABL1 P465S (Homo sapiens, UniProt P00519+P11274, P465S); assay: Cell growth inhibitory activity assay (CellTiter-Glo), Ba/F3 BCR-ABL1 P465S cells; details: 72 h, CTG cell viability
T5 construct: BCR (N-terminal fusion partner of the oncoprotein); expressed in transfected cells; host or cells: Ba/F3 (lentiviral transduction, monoclonal line)
Method: as §1, §2, §3, §4

[2] = target: T6, Ba/F3 BCR-ABL1 E255V/T315I (Homo sapiens, UniProt P00519+P11274, E255V/T315I); assay: Cell growth inhibitory activity assay (CellTiter-Glo), Ba/F3 BCR-ABL1 E255V/T315I cells; details: 72 h, CTG cell viability
T6 construct: BCR (N-terminal fusion partner of the oncoprotein); expressed in transfected cells; host or cells: Ba/F3 (lentiviral transduction, monoclonal line)
Method: as §1, §2, §3, §4

Ba/F3 BCR-ABL1 I502L = target: T7, Ba/F3 BCR-ABL1 I502L (Homo sapiens, UniProt P00519+P11274, I502L); assay: Cell growth inhibitory activity assay (CellTiter-Glo), Ba/F3 BCR-ABL1 I502L cells; details: 72 h, CTG cell viability
T7 construct: BCR (N-terminal fusion partner of the oncoprotein); expressed in transfected cells; host or cells: Ba/F3 (lentiviral transduction, monoclonal line)
Method: as §1, §2, §3, §4

Ba/F3 BCR-ABL1 V468F = target: T8, Ba/F3 BCR-ABL1 V468F (Homo sapiens, UniProt P00519+P11274, V468F); assay: Cell growth inhibitory activity assay (CellTiter-Glo), Ba/F3 BCR-ABL1 V468F cells; details: 72 h, CTG cell viability
T8 construct: BCR (N-terminal fusion partner of the oncoprotein); expressed in transfected cells; host or cells: Ba/F3 (lentiviral transduction, monoclonal line)
Method: as §1, §2, §3, §4

Ba/F3 BCR-ABL1 WT = target: T9, Ba/F3 BCR-ABL1 WT (Homo sapiens, UniProt P00519+P11274); assay: Cell growth inhibitory activity assay (CellTiter-Glo), Ba/F3 BCR-ABL1 WT cells; details: 72 h, CTG cell viability
T9 construct: BCR (N-terminal fusion partner of the oncoprotein); expressed in transfected cells; host or cells: Ba/F3 (lentiviral transduction, monoclonal line)
Procedure, shortened: as §5

Ba/F3 BCR-ABL1 T315I = target: T10, Ba/F3 BCR-ABL1 T315I (Homo sapiens, UniProt P00519+P11274, T315I); assay: Cell growth inhibitory activity assay (CellTiter-Glo), Ba/F3 BCR-ABL1 T315I cells; details: 72 h, CTG cell viability
T10 construct: BCR (N-terminal fusion partner of the oncoprotein); expressed in transfected cells; host or cells: Ba/F3 (lentiviral transduction, monoclonal line)
Procedure, shortened: as §5

SMILES	pIC50 (K562 cells)	pIC50 [1]	pIC50 (Ba/F3 parental cells)	pIC50 (Ba/F3 BCR-ABL1 T315M)	pIC50 (Ba/F3 BCR-ABL1 A424T)	pIC50 (Ba/F3 BCR-ABL1 A337V)	pIC50 (Ba/F3 BCR-ABL1 P465S)	pIC50 [2]	pIC50 (Ba/F3 BCR-ABL1 I502L)	pIC50 (Ba/F3 BCR-ABL1 V468F)	pIC50 (Ba/F3 BCR-ABL1 WT)	pIC50 (Ba/F3 BCR-ABL1 T315I)
C[C@@H]1COCc2nc3cc(C(=O)Nc4ccc(OC(F)(F)Cl)cc4)cc(-c4cnc5c(c4)-c4nn(-c6nccc(C#N)n6)cc4C5)c3n21 [T-69-B, (R)-N-(4-(chlorodifluoromethoxy)phenyl)-6-(2-(4-cyanopyrimidin-2-yl)-2,4-dihydropyrazolo[3',4':3,4]cyclopenta[1,2-b]pyridin-7-yl)-4-methyl-3,4-dihydro-1H-benzo[4,5]imidazo[2,1-c][1,4]oxazine-8-carboxamide]	≥ 8.30	7.30 to 8.30	< 6.00	≥ 8.30	7.30 to 8.30	6.00 to 7.30	6.00 to 7.30	≥ 8.30	≥ 8.30	6.00 to 7.30	≥ 8.30	≥ 8.30
C[C@@H]1CCSc2nc3cc(C(=O)Nc4ccc(OC(F)(F)Cl)cc4)cc(-c4cnc5c(c4)C(=O)N(C)C5)c3n21 [T-20, (R)-N-(4-(chlorodifluoromethoxy)phenyl)-4-methyl-6-(6-methyl-5-oxo-6,7-dihydro-5H-pyrrolo[3,4-b]pyridin-3-yl)-3,4-dihydro-2H-benzo[4,5]imidazo[2,1-b][1,3]thiazine-8-carboxamide]	≥ 8.30	6.00 to 7.30	< 6.00	< 6.00	6.00 to 7.30	6.00 to 7.30	6.00 to 7.30	7.30 to 8.30	7.30 to 8.30	6.00 to 7.30	≥ 8.30	7.30 to 8.30
C[C@@H]1COCc2nc3cc(C(=O)Nc4ccc(OC(F)(F)Cl)cc4)cc(-c4cnc5c(c4)-c4nn(-c6ncccn6)cc4C5)c3n21 [T-65]	≥ 8.30	≥ 8.30	< 6.00	≥ 8.30	≥ 8.30	≥ 8.30	7.30 to 8.30	≥ 8.30	≥ 8.30	7.30 to 8.30	≥ 8.30	≥ 8.30

Second part, led by results:

pIC50 (K562 cells)	SMILES	pIC50 [1]	pIC50 (Ba/F3 parental cells)	pIC50 (Ba/F3 BCR-ABL1 T315M)	pIC50 (Ba/F3 BCR-ABL1 A424T)	pIC50 (Ba/F3 BCR-ABL1 A337V)	pIC50 (Ba/F3 BCR-ABL1 P465S)	pIC50 [2]	pIC50 (Ba/F3 BCR-ABL1 I502L)	pIC50 (Ba/F3 BCR-ABL1 V468F)	pIC50 (Ba/F3 BCR-ABL1 WT)	pIC50 (Ba/F3 BCR-ABL1 T315I)
≥ 8.30	C[C@@H]1COCc2nc3cc(C(=O)Nc4ccc(OC(F)(F)Cl)cc4)cc(-c4cnccn4)c3n21 [T-115, (R)-N-(4-(chlorodifluoromethoxy)phenyl)-4-methyl-6-(pyrazin-2-yl)-3,4-dihydro-1H-benzo[4,5]imidazo[2,1-c][1,4]oxazine-8-carboxamide]	7.30 to 8.30	< 6.00	< 6.00	6.00 to 7.30	6.00 to 7.30	6.00 to 7.30	7.30 to 8.30	6.00 to 7.30	6.00 to 7.30	≥ 8.30	7.30 to 8.30
≥ 8.30	C[C@@H]1COCc2nc3cc(C(=O)Nc4ccc(OC(F)(F)Cl)cc4)cc(-c4cnc5c(c4)-c4nn(CC(F)(F)F)cc4C5)c3n21 [T-49, (R)-N-(4-(chlorodifluoromethoxy)phenyl)-4-methyl-6-(2-(2,2,2-trifluoroethyl)-2,4-dihydropyrazolo[3',4':3,4]cyclopenta[1,2-b]pyridin-7-yl)-3,4-dihydro-1H-benzo[4,5]imidazo[2,1-c][1,4]oxazine-8-carboxamide]	≥ 8.30	< 6.00	6.00 to 7.30	≥ 8.30	7.30 to 8.30	7.30 to 8.30	≥ 8.30	7.30 to 8.30	7.30 to 8.30	≥ 8.30	≥ 8.30
